From US20240270762A1, “PENICILLIN-BINDING PROTEIN INHIBITORS” (priority 2021, published 2024)
≈ marks a conversion by molar mass, not a printed value.

What was measured:
[1] = test system: N. gonorrhoeae WHO Z; experiment: Liquid broth MIC in Fastidious broth; conditions: Neisseria gonorrhoeae, read-out: Minimum Inhibitory Concentration (MIC), N. gonorrhoeae WHO Z
[2] = test system: N. gonorrhoeae WHO K; experiment: Liquid broth MIC in Fastidious broth; conditions: Neisseria gonorrhoeae, read-out: Minimum Inhibitory Concentration (MIC), N. gonorrhoeae WHO K
[3] = test system: N. gonorrhoeae MS11; experiment: Liquid broth MIC in Fastidious broth; conditions: Neisseria gonorrhoeae, MS11, read-out: Minimum Inhibitory Concentration (MIC), N. gonorrhoeae MS11
Experimental: (§1) Additional antibacterial testing of the series was performed in 8 reference strains of N. gonorrhoeae (ATCC 49226, FA1090, MS 11, WHO G, WHO L, WHO M, WHO K, WHO X, WHO Z, WHO Q, CDC-0197). ATCC 49226, FA1090, MS11, WHO G, WHO L, and WHO M produce wild type or wild-type like PBP2. WHO K, WHO X, WHO Z, WHO Q, and CDC-0197 produce mosaic PBP2. Liquid broth-based assays were used for antibacterial testing of PBP inhibitors in Neisseria gonorrhoeae. Briefly, cryo-preserved bacterial cultures of clinical strains were streaked for isolation on Chocolate Agar (72 g/L (2×) GC Agar Base (BD #228950) and 2% (2×) Hemoglobin was autoclaved at 121° C. for 20 minutes to sterilize. Once cooled to ˜50° C. the 2×GC Agar Base and 2× Hemoglobin solutions are combined and 1% IsoVitaleX Enrichment (BD #211876) was added to the solution). Strains were incubated at 36° C. and 5% CO2 to allow growth of colonies, 24 hours before inoculum preparation. 2-fold serial dilutions of test compounds were conducted in a 96 well plate with a final volume of 75 μL per well at 2-fold the final desired concentration in Fastidious broth (Remel #R07664). For preparation of assay inoculum, a direct suspension was prepared by aseptically swabbing 10-15 colonies from agar plates into culture tubes containing 2 mL of fresh sterile saline. After the dilution plates were set up, direct suspensions were then diluted in a cuvette containing sterile saline and the optical density was measured at 600 nm. Inocula were diluted such that 75 μL of this culture in Fastidious broth results in a starting bacterial concentration of 5×10^5 CFU/mL when added to the dilution plates. The plates were incubated for ˜24 hours at 36° C. and 5% CO2.

[4] = test system: N. gonorrhoeae WHO L; experiment: Liquid broth MIC in Fastidious broth; conditions: Neisseria gonorrhoeae, read-out: Minimum Inhibitory Concentration (MIC), N. gonorrhoeae WHO L
[5] = test system: N. gonorrhoeae WHO Q; experiment: Liquid broth MIC in Fastidious broth; conditions: Neisseria gonorrhoeae, read-out: Minimum Inhibitory Concentration (MIC), N. gonorrhoeae WHO Q
[6] = test system: K. pneumoniae SI-117; experiment: microbe, parasite or virus in culture; type: cell-based; conditions: Klebsiella pneumoniae, SI117, read-out: MIC K. pneumoniae SI-117
[7] = test system: E. coli ATCC 25922; experiment: microbe, parasite or virus in culture; type: cell-based; conditions: Escherichia coli, ATCC25922, read-out: MIC E. coli 25922
[8] = test system: N. gonorrhoeae CDC-0197; experiment: Liquid broth MIC in Fastidious broth; conditions: Neisseria gonorrhoeae, CDC0197, read-out: Minimum Inhibitory Concentration (MIC), N. gonorrhoeae CDC-0197
[9] = test system: P. aeruginosa ATCC 35151; experiment: microbe, parasite or virus in culture; type: cell-based; conditions: Pseudomonas aeruginosa, ATCC35151, read-out: MIC P. aeruginosa ATCC 35151
[10] = test system: K. pneumoniae UMM; experiment: microbe, parasite or virus in culture; type: cell-based; conditions: Klebsiella pneumoniae, read-out: MIC K. pneumoniae UMM
[11] = test system: E. coli D22; experiment: microbe, parasite or virus in culture; type: cell-based; conditions: Escherichia coli, D22, read-out: MIC E. coli D22
[12] = test system: E. coli AG100A; experiment: Broth microdilution MIC in CAMHB; type: cell-based; conditions: Escherichia coli, read-out: MIC E. coli AG100A
[13] = test system: N. gonorrhoeae WHO M; experiment: Liquid broth MIC in Fastidious broth; conditions: Neisseria gonorrhoeae, read-out: Minimum Inhibitory Concentration (MIC), N. gonorrhoeae WHO M
[14] = biological target: T1, PBP3 from Escherichia coli (K-12) (Escherichia coli, UniProt P0AD68); experiment: Bocillin-FL fluorescence polarization competition binding, E. coli PBP3
T1 construct: made in house
Method in brief: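 Purified PBP was preincubated with inhibitor (E. coli PBP3 1.5 μM, 30 min; P. aeruginosa PBP3 0.75 μM, A. baumannii PBP3 0.2 μM and PBP1a 1 μM, 15 min), then Bocillin-FL (0.1 μM; 0.05 μM for PBP1a) added and FP read up to 60 min. EC50 = 50% loss of bound probe.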

[15] = test system: A. baumannii ATCC 19606; experiment: microbe, parasite or virus in culture; type: cell-based; conditions: Acinetobacter baumannii, ATCC19606, read-out: MIC, A. baumannii ATCC 19606
[16] = test system: N. gonorrhoeae ATCC 49226; experiment: Liquid broth MIC in Fastidious broth; conditions: Neisseria gonorrhoeae, ATCC49226, read-out: Minimum Inhibitory Concentration (MIC), N. gonorrhoeae ATCC 49226
Experimental: as §1

T1 sequence (P0AD68 1-577): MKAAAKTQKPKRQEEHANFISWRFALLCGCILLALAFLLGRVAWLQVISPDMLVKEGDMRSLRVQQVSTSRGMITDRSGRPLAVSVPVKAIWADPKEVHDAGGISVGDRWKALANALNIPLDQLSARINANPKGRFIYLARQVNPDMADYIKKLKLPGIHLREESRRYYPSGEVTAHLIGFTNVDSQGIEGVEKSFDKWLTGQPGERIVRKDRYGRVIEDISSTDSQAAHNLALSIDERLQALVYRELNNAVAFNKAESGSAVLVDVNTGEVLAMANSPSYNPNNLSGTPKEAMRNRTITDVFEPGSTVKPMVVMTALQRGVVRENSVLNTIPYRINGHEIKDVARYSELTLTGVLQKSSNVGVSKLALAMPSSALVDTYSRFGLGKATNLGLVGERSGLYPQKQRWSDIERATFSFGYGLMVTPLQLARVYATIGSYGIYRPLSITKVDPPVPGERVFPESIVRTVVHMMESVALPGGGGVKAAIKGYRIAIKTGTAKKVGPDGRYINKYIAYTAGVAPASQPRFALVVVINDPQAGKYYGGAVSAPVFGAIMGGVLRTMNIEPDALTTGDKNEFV

Structure (SMILES)	MIC [1] [µg/mL]	MIC [2] [µg/mL]	MIC [3] [µg/mL]	MIC [4] [µg/mL]	MIC [5] [µg/mL]	MIC [6] [µg/mL]	MIC [7] [µg/mL]	MIC [8] [µg/mL]	MIC [9] [µg/mL]	MIC [10] [µg/mL]	MIC [11] [µg/mL]	MIC [12] [µg/mL]	MIC [13] [µg/mL]	EC50 [14] [µM]	MIC [15] [µg/mL]	MIC [16] [µg/mL]
CN1CCN(C(=O)NC(C(=O)N[C@H]2Cc3cccc(C(=O)O)c3OB2O)c2ccc(P(=O)(O)O)cc2)C1=O (stereo partly drawn) [Example 41, (3R)-2-hydroxy-3-(2-(3-methyl-2-oxoimidazolidine-1-carboxamido)-2-(4-phosphonophenyl)acetamido)-3,4-dihydro-2H-benzo[e][1,2]oxaborinine-8-carboxylic acid]	< 1	< 1	< 1	1 to 2 (≈ 1.83 to 3.66 µM)	< 1	> 128	32 to 64 (≈ 58.6 to 117 µM)	< 1	< 1	32 to 64 (≈ 58.6 to 117 µM)	2 to 4 (≈ 3.66 to 7.32 µM)	8 to 16 (≈ 14.6 to 29.3 µM)	< 1	< 10	32 to 64 (≈ 58.6 to 117 µM)	< 1
O=C(O)c1cccc2c1OB(O)[C@@H](NC(=O)[C@@H](NC(=O)N1CCNC1=O)c1ccc(P(=O)(O)O)cc1)C2 [Example 39, (R)-2-hydroxy-3-((S)-2-(2-oxoimidazolidine-1-carboxamido)-2-(4-phosphonophenyl)acetamido)-3,4-dihydro-2H-benzo[e][1,2]oxaborinine-8-carboxylic acid]	1 to 2 (≈ 1.88 to 3.76 µM)	16 to 32 (≈ 30.1 to 60.1 µM)	1 to 2 (≈ 1.88 to 3.76 µM)	16 to 32 (≈ 30.1 to 60.1 µM)	4 to 8 (≈ 7.52 to 15 µM)	> 128	> 128	1 to 2 (≈ 1.88 to 3.76 µM)	2 to 4 (≈ 3.76 to 7.52 µM)	> 128	32 to 64 (≈ 60.1 to 120 µM)	> 128	< 1	50 to 250	> 128	1 to 2 (≈ 1.88 to 3.76 µM)
O=C(NC(C(=O)N[C@H]1Cc2cccc(C(=O)O)c2OB1O)c1ccc(P(=O)(O)O)cc1)c1ccccn1 (stereo partly drawn) [Example 32, (3R)-2-hydroxy-3-(2-(4-phosphonophenyl)-2-(picolinamido)acetamido)-3,4-dihydro-2H-benzo[e][1,2]oxaborinine-8-carboxylic acid]	1 to 2 (≈ 1.9 to 3.81 µM)	4 to 8 (≈ 7.62 to 15.2 µM)	1 to 2 (≈ 1.9 to 3.81 µM)	16 to 32 (≈ 30.5 to 60.9 µM)	1 to 2 (≈ 1.9 to 3.81 µM)	> 128	> 128	1 to 2 (≈ 1.9 to 3.81 µM)	2 to 4 (≈ 3.81 to 7.62 µM)	> 128	8 to 16 (≈ 15.2 to 30.5 µM)	32 to 64 (≈ 60.9 to 122 µM)	< 1	10 to 50	> 128	1 to 2 (≈ 1.9 to 3.81 µM)
